Results from patent US20110306576A1, “COMPOUNDS AND METHODS RELATING THERETO” (PHARMALUCIA LIMITED, priority 2009, published 2011).
Where two headings read alike, the source gives them in different places.

Tests used:
[1] = Hydrophilic-lipophilic balance (Log P), phosphate-buffered saline / 1-octanol
Method: The data were calculated using the standard spectrophotometric method [ref] based on the relationship:
where A and A^1 are the absorption intensities before and after partitioning respectively and Vw and Vo are the respective volumes of the aqueous and 1-octanol phases. Determinations were repeated three times.

[2] = test system: Enterococcus faecalis (NCIMB 13280); test: Antimicrobial screening, photobactericidal efficacy; format: cell-based; settings: for Minimum bactericidal/fungicidal concentration E. faecalis Dark: foil-covered dark control; for Minimum bactericidal/fungicidal concentration E. faecalis Light: illuminated 20 min, LED 660 nm, 6.2 J cm^−2
Method: (§1) The photobactericidal efficacies of the derivatives in addition to that of the known photosensitiser methylene blue were measured against both Gram positive Staphylococcus aureus (NCTC 6571) and Enterococcus faecalis (NCIMB 13280) and Gram negative Escherichia coli (NCTC 10418), Proteus mirabilis (NCIMB 5887) and a clinical strain of Klebsiella pneumoniae bacteria. Both strains were grown in Mueller-Hinton Broth and then diluted to a concentration of 10^6 colony-forming units/ml. Aliquots of the strains were then incubated for 1 hour at 37° C. in microtitre trays with various concentrations of photosensitiser in a range of from 100 to 3 μM, with zero photosensitiser concentrations in each case for control purposes. The trays were then either illuminated for twenty minutes using an array of light-emitting diodes (660 nm) giving a light dose of 6.2 J cm^−2 or alternatively foil-covered to provide dark controls. From each well showing an inhibition of growth of the micro-organism, 1 μl was sub-cultured on nutrient agar, using the Miles-Misra method, and incubated for 18 hours at 37° C. The minimum bactericidal concentrations were then determined as the lowest concentration for each photosensitiser giving no bacterial growth.

[3] = test system: Escherichia coli (NCTC 10418); test: as above; format: cell-based
Method: as §1

[4] = test system: Proteus mirabilis (NCIMB 5887); test: as above; format: cell-based; settings: for Minimum bactericidal/fungicidal concentration P. mirabilis Dark: foil-covered dark control; for Minimum bactericidal/fungicidal concentration P. mirabilis Light: illuminated 20 min, LED 660 nm, 6.2 J cm^−2
Method: as §1

[5] = test system: Staphylococcus aureus (NCTC 6571); test: as above; format: cell-based
Method: as §1

[6] = test system: clinical strain of Klebsiella pneumoniae; test: as above; format: cell-based; settings: for Minimum bactericidal/fungicidal concentration K. pneumoniae Dark: foil-covered dark control; for Minimum bactericidal/fungicidal concentration K. pneumoniae Light: illuminated 20 min, LED 660 nm, 6.2 J cm^−2
Method: as §1

[7] = test system: Candida albicans (NCPF 8179); test: Antifungal screening; format: cell-based; settings: Sabouraud broth and agar; for Minimum bactericidal/fungicidal concentration C. albicans Dark: foil-covered dark control; for Minimum bactericidal/fungicidal concentration C. albicans Light: illuminated 20 min, LED 660 nm, 6.2 J cm^−2
[8] = Singlet oxygen production (TPCPD decolourisation in dichloromethane); settings: singlet oxygen yield relative to methylene blue (= 1.0), time for 50% decrease in TPCPD absorption at 500 nm
Description: Thus the decrease in absorption at 500 nm was monitored spectrophotometrically with time using the method described by Cincotta et al. in “Novel red absorbing benzo[α]phenoxazinium and benzo[α]phenothiazinium photosensitizers: in vitro evaluation”, Photochem. […] To calculate the singlet oxygen yield for the derivative compounds of the present invention (ΦΔDer), the following formula was used:

[9] = value given for the standard photosensitiser; cited from earlier work
[10] = partition between phosphate-buffered saline and 1-octanol, spectrophotometric method, repeated three times
[11] = foil-covered dark control, read-out: Minimum Bactericidal Concentration E. coli (Dark)
[12] = illuminated 20 min, LED 660 nm, 6.2 J cm^−2, 1 h incubation at 37° C., read-out: Minimum Bactericidal Concentration E. coli (Light)
[13] = foil-covered dark control, read-out: Minimum Bactericidal Concentration S. aureus (Dark)
[14] = illuminated 20 min, LED 660 nm, 6.2 J cm^−2, 1 h incubation at 37° C., read-out: Minimum Bactericidal Concentration S. aureus (Light)
[15] = Escherichia coli, NCTC10418, foil-covered dark control, read-out: Minimum Bactericidal Concentration E. coli (Dark)
[16] = Escherichia coli, NCTC10418, illuminated 20 min, LED 660 nm, 6.2 J cm^−2, 1 h incubation at 37° C., read-out: Minimum Bactericidal Concentration E. coli (Light)
[17] = Staphylococcus aureus, NCTC6571, foil-covered dark control, read-out: Minimum Bactericidal Concentration S. aureus (Dark)
[18] = Staphylococcus aureus, NCTC6571, illuminated 20 min, LED 660 nm, 6.2 J cm^−2, 1 h incubation at 37° C., read-out: Minimum Bactericidal Concentration S. aureus (Light)
[19] = phosphate-buffered saline / 1-octanol

Compound	logP [1, 10]	Minimum bactericidal/fungicidal concentration E. faecalis Dark [2] [µM]	Minimum bactericidal/fungicidal concentration E. faecalis Light [2] [µM]	MBC [3, 11] [µM]	MBC [3, 12] [µM]	Minimum bactericidal/fungicidal concentration P. mirabilis Dark [4] [µM]	Minimum bactericidal/fungicidal concentration P. mirabilis Light [4] [µM]	MBC [5, 13] [µM]	MBC [5, 14] [µM]	Minimum bactericidal/fungicidal concentration K. pneumoniae Dark [6] [µM]	Minimum bactericidal/fungicidal concentration K. pneumoniae Light [6] [µM]	Minimum bactericidal/fungicidal concentration C. albicans Dark [7] [µM]	Minimum bactericidal/fungicidal concentration C. albicans Light [7] [µM]	Relative ΦΔ [8]	MBC [3, 15] [µM]	MBC [3, 16] [µM]	MBC [5, 17] [µM]	MBC [5, 18] [µM]	logP [1, 19]	singlet oxygen yield (ΦΔMB) [9]
3-(Di-n-hexylamino)-7-((2-(diethylamino)ethyl)(ethyl)amino)phenothiazinium iodide [Example 7b]	+1.25	100	0.19	25	6.25	100	0.39	12.5	3.125	100	0.19	25	3.13	0.4						
CO[Si](CCCNc1ccc2nc3ccc(N(C)C)cc3[s+]c2c1)(OC)OC [Example 2b, 3-(3-Trimethoxsilylpropyl)amino-7-dimethylaminophenothiazinium hydrogensulphate]		50	0.78			100	1.56			100	1.56	25	3.13							
CN(C)CCCN(CCCN(C)C)c1ccc2nc3ccc(N(CCCN(C)C)CCCN(C)C)cc3[s+]c2c1 [Example 4a, 3,7-Bis(bis(3-(dimethylamino)propyl)amino)phenothiazinium bromide]															12.5	3.12	6.25	3.12		
CCN(CC)CCCN(CCCN(CC)CC)c1ccc2nc3ccc(N(CCCN(CC)CC)CCCN(CC)CC)cc3[s+]c2c1 [Example 4b, 3,7-Bis(bis(3-(diethylamino)propyl)amino)phenothiazinium bromide]															100	25	100	50	0.11	
CCN(CC)CCN(C)c1ccc2nc3ccc(N(C)CCN(CC)CC)cc3[s+]c2c1 [Example 4f, 3,7-Bis((2-(diethylamino)ethyl)(methyl)amino)phenothiazinium bromide]														0.6	> 100	3.12	> 100	6.25	0.27	
CCN(CC)CCCC(C)Nc1ccc2nc3ccc(N(CC)CC)cc3[s+]c2c1 (stereo not drawn) [Example 7a, 3-(Diethylamino)-7-(5-(diethylamino)pentan-2-ylamino)phenothiazinium iodide]														0.2	100	50	100	25	0.65	
CCCCN(CCCC)c1ccc2nc3ccc(N(CC)CCN(CC)CC)cc3[s+]c2c1 [Example 7c, 3-(Di-n-butylamino)-7-((2-(diethylamino)ethyl)(ethyl)amino)phenothiazinium iodide]		6.25	0.39			100	0.78			100	6.25	25	3.13	0.3	25	6.25	25	12.5	1.09	
CCN(CC)CCN(C)c1ccc2nc3ccc(N(CC)CC)cc3[s+]c2c1 [Example 7d, 3-(Diethylamino)-7-((2-(diethylamino)ethyl)(methyl)amino)phenothiazinium iodide]														1.4	100	50	50	25	0.74	
CCCN(CCC)c1ccc2nc3ccc(N(CCCN(C)C)CCCN(C)C)cc3[s+]c2c1 [Example 7e, 3-(Bis(3-(dimethylamino)propyl)amino)-7-(di-n-propylamino)phenothiazinium iodide]		100	0.19			100	0.39			100	3.13	100	3.13		> 100	3.12	> 100	3.12		
OCCN(CCO)c1ccc2nc3ccc(NCCCN4CCOCC4)cc3[s+]c2c1.[I-] [Example 7f]	+0.57			50	25			25	25					0.2						
CCCCN(CCCC)c1ccc2nc3ccc(N4CCN(CCN5CCN(c6ccc7nc8ccc(N(CCCC)CCCC)cc8[s+]c7c6)CC5)CC4)cc3[s+]c2c1.[I-].[I-] [Example 7g, 7,7′-(4,4′-(ethane-1,2-diyl)bis(piperazine-4,1-diyl))bis(3-(dibutylamino)phenothiazin-5-ium)iodide]		12.5	1.56			100	0.78			100	3.13	25	3.13							
CN(C)c1ccc2nc3ccc(N(C)C)cc3[s+]c2c1 [Methylene blue, reference compound]														1.00		25		25		0.443
